In US10815244B2, “Isoidide derivatives and methods of making and using same” (Rutgers, the State University of New Jersey, priority 2015, dated 2020):

Tests used:
EGFR kinase = EGFR kinase (Homo sapiens (Human), UniProt P00533); experiment: EGFR kinase activity, luminescent ATP/ADP detection assay; format: biochemical; conditions: purified EGFR kinase, 10 min incubation, luminescence ADP detection
Procedure: Example RR: EGFR as a Drug Target Assay Conditions
The IC50s of the compounds on EGFR activity were determined using the Luminescent ATP/ADP detection assay system. Briefly, the assay method measures ADP formed from EGFR kinase activity using luminescence derived from ATP-Luciferase detection system. Purified EGFR kinase was incubated with different concentrations of test compound in the kinase reaction buffer for 10 min. The reaction was stopped by depleting the unused ATP in the kinase reaction buffer using the depletion buffer for 40 min. The levels of ADP generated during the kinase reaction was detected by measuring the luminescence using the Luciferase system.

[1] = system: TNF-α (LPS-stimulated PBMCs); experiment: TNF-α expression in LPS-stimulated PBMCs in the presence of MIF inhibitors (ELISA); format: cell-based; conditions: Homo sapiens, PBMC, LPS 10 ng/ml and LPS+MIF, ELISA of supernatant
Procedure: (§1) Example QQ: Macrophage Migration Inhibitory Factor (MIF) as a Drug Target Assay Conditions
(§2) a) PBMC Isolation: • Heparinized blood (10 ml) was diluted with equal volume of phosphate buffer saline (PBS). To the Ficoll solution (5 ml) add 5 ml of blood:PBS mixture and centrifuge at 1600 rpm for 30 minutes. Take the buffy coat and wash with PBS at 1200 rpm for 5 minutes (twice). After two wash with PBS, the PBMCs were washed with RPMI medium. The PBMC were counted and plated in 96 well plates (1×10^6 cells/well).
(§3) b) Expression of TNF-α and […] in PBMCs in the Presence of MIF Inhibitors: • After overnight incubation, the cells were treated with different concentration of MIF inhibitors. After 6 hr, cells were treated with LPS (10 ng/ml) and LPS+MIF combination (10 ng/ml) and further incubated for overnight. PBMCs treated with 10 ng/ml of LPS and MIF in the presence of different concentrations of test compounds. After the incubation period, the supernatant were collected and human TNF-α and IL-1β were determined using the ELISA kits (R&D Systems).

[2] = system: IL-1β (LPS-stimulated PBMCs); experiment: IL-1β expression in LPS-stimulated PBMCs in the presence of MIF inhibitors (ELISA); format: cell-based; conditions: Homo sapiens, PBMC, LPS 10 ng/ml and LPS+MIF, ELISA of supernatant
Procedure: as §1, §2, §3

Chain of EGFR kinase (P00533 25-1210): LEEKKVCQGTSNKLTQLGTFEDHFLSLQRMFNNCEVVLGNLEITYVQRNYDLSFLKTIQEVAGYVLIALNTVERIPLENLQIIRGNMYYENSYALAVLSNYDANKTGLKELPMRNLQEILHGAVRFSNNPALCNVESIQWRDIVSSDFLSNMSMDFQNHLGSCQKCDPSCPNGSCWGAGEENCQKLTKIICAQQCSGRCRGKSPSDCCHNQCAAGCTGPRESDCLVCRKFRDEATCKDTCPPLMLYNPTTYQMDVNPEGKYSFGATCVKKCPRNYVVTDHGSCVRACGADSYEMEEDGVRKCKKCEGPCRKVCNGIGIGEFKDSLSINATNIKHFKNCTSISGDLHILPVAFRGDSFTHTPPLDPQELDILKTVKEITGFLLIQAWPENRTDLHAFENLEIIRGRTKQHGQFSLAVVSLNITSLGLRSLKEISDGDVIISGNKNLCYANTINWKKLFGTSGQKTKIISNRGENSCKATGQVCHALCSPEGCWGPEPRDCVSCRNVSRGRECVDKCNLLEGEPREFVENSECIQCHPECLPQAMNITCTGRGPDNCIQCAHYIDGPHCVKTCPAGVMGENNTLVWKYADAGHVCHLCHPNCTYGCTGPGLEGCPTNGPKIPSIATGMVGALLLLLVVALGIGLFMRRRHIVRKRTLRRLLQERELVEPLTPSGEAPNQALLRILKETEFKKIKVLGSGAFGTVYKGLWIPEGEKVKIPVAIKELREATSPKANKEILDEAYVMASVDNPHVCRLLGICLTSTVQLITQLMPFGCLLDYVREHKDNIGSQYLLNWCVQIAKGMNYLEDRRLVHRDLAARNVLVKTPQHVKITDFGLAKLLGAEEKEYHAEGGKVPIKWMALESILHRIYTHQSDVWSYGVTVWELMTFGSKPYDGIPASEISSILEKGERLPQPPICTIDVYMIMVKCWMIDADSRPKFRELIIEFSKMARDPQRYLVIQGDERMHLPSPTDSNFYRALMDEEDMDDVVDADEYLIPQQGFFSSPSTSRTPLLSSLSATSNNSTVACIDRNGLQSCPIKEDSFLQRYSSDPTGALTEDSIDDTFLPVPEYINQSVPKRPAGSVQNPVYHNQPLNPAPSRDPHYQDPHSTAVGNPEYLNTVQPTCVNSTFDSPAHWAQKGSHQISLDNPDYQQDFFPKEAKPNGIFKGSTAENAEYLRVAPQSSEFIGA

Row | SMILES | EGFR IC50 (EGFR kinase) | IC50 [1] | IC50 [2] | IC50 (EGFR kinase)
1 | CS(=O)(=O)N1CCC(Nc2nccc(O[C@H]3CO[C@H]4[C@@H]3OC[C@@H]4OC(=O)c3ccccc3)n2)CC1 [Example JJ, [(3S,3aR,6S,6aR)-3-[2-[(1-methylsulfonyl-4-piperidyl)amino]pyrimidin-4-yl]oxy-2,3,3a,5,6,6a-hexahydrofuro[3,2-b]furan-6-yl] benzoate] | Inactive | – | – | –
2 | N#Cc1c(O[C@H]2CO[C@H]3[C@@H]2OC[C@@H]3OC(=O)c2ccccc2)c2ccccc2n(Cc2ccc(F)cc2)c1=O [Example P, [(3S,3aR,6S,6aR)-3-[[3-cyano-1-[(4-fluorophenyl)methyl]-2-oxo-4-quinolyl]oxy]-2,3,3a,5,6,6a-hexahydrofuro[3,2-b]furan-6-yl] benzoate] | – | > 10000 nM | > 10000 nM | –
3 | CC(=O)O[C@H]1CO[C@H]2[C@@H]1OC[C@@H]2Oc1ccnc(NC2CCN(S(=O)(=O)c3ccc(C)cc3)CC2)n1 [Example GG, [(3S,3aR,6S,6aR)-3-[2-[(1-tolylsulfonyl-4-piperidyl)amino]pyrimidin-4-yl]oxy-2,3,3a,5,6,6a-hexahydrofuro[3,2-b]furan-6-yl] acetate] | Inactive | – | – | –
4 | N#Cc1c(O[C@H]2CO[C@H]3[C@@H]2OC[C@@H]3OC(=O)CCl)c2ccccc2n(Cc2ccccc2)c1=O [Example M, [(3S,3aR,6S,6aR)-3-[(1-benzyl-3-cyano-2-oxo-4-quinolyl)oxy]-2,3,3a,5,6,6a-hexahydrofuro[3,2-b]furan-6-yl] 2-chloroacetate] | – | > 500 nM | > 500 nM | –
5 | CC(=O)O[C@H]1CO[C@H]2[C@@H]1OC[C@@H]2Oc1c(C#N)c(=O)n(Cc2ccccc2)c2ccccc12 [Example L, [(3S,3aR,6S,6aR)-3-[(1-benzyl-3-cyano-2-oxo-4-quinolyl)oxy]-2,3,3a,5,6,6a-hexahydrofuro[3,2-b]furan-6-yl] acetate] | – | > 1000 nM | > 1000 nM | –
6 | COc1cc2ncnc(Nc3ccc(O[C@H]4CO[C@H]5[C@@H]4OC[C@@H]5OCc4ccccc4)cc3)c2cc1OC [Example Z, N-[4-[[(3S,3aR,6S,6aR)-3-benzyloxy-2,3,3a,5,6,6a-hexahydrofuro[3,2-b]furan-6-yl]oxy]phenyl]-6,7-dimethoxy-quinazolin-4-amine] | – | – | – | > 100 nM
7 | CCOC(=O)c1c(O[C@H]2CO[C@H]3[C@@H]2OC[C@@H]3O)c2ccccc2n(CC)c1=O [Example A, ethyl 4-[[(3S,3aR,6S,6aR)-3-hydroxy-2,3,3a,5,6,6a-hexahydrofuro[3,2-b]furan-6-yl]oxy]-1-ethyl-2-oxo-1,2-dihydroquinoline-3-carboxylate] | – | > 1000 nM | > 1000 nM | –
8 | N#Cc1c(Nc2ccc(O[C@H]3CO[C@H]4[C@@H]3OC[C@@H]4O)c(Cl)c2)c2ccccc2n(Cc2ccccc2)c1=O [Example R, 4-[4-[[(3S,3aR,6S,6aR)-3-hydroxy-2,3,3a,5,6,6a-hexahydrofuro[3,2-b]furan-6-yl]oxy]-3-chloro-anilino]-1-benzyl-2-oxo-1,2-dihydroquinoline-3-carbonitrile] | – | > 100 nM | > 100 nM | –
9 | CCOC(=O)c1c(O[C@H]2CO[C@H]3[C@@H]2OC[C@@H]3OC(=O)CCl)c2ccccc2n(Cc2ccc(F)cc2)c1=O [Example J, ethyl 4-[[(3S,3aR,6S,6aR)-6-(2-chloroacetyl)oxy-2,3,3a,5,6,6a-hexahydrofuro[3,2-b]furan-3-yl]oxy]-1-[(4-fluorophenyl)methyl]-2-oxo-1,2-dihydroquinoline-3-carboxylate] | – | > 100 nM | > 100 nM | –
10 | O[C@H]1CO[C@H]2[C@@H]1OC[C@@H]2Oc1ccc(Nc2ncnc3ccsc23)cc1Cl [Example U, (3S,3aR,6S,6aR)-6-[2-chloro-4-(thieno[3,2-d]pyrimidin-4-ylamino)phenoxy]-2,3,3a,5,6,6a-hexahydrofuro[3,2-b]furan-3-ol] | – | – | – | > 100 nM
11 | CC(=O)O[C@H]1CO[C@H]2[C@@H]1OC[C@@H]2Oc1c(C#N)c(=O)n(Cc2ccc(F)cc2)c2ccccc12 [Example O, [(3S,3aR,6S,6aR)-3-[[3-cyano-1-[(4-fluorophenyl)methyl]-2-oxo-4-quinolyl]oxy]-2,3,3a,5,6,6a-hexahydrofuro[3,2-b]furan-6-yl] acetate] | – | > 100 nM | > 10000 nM | –
12 | CCOC(=O)c1c(O[C@H]2CO[C@H]3[C@@H]2OC[C@@H]3OC(=O)CCl)c2ccccc2n(CC)c1=O [Example C, ethyl 4-[[(3S,3aR,6S,6aR)-6-(2-chloroacetyl)oxy-2,3,3a,5,6,6a-hexahydrofuro[3,2-b]furan-3-yl]oxy]-1-ethyl-2-oxo-1,2-dihydroquinoline-3-carboxylate] | – | > 500 nM | > 500 nM | –
13 | CCOC(=O)c1c(O[C@H]2CO[C@H]3[C@@H]2OC[C@@H]3OC(C)=O)c2ccccc2n(CC)c1=O [Example B, ethyl 4-[[(3S,3aR,6S,6aR)-6-acetoxy-2,3,3a,5,6,6a-hexahydrofuro[3,2-b]furan-3-yl]oxy]-1-ethyl-2-oxo-1,2-dihydroquinoline-3-carboxylate] | – | > 10000 nM | > 10000 nM | –
14 | N#Cc1c(O[C@H]2CO[C@H]3[C@@H]2OC[C@@H]3O)c2ccccc2n(Cc2ccccc2)c1=O [Example K, 4-[[(3S,3aR,6S,6aR)-3-hydroxy-2,3,3a,5,6,6a-hexahydrofuro[3,2-b]furan-6-yl]oxy]-1-benzyl-2-oxo-1,2-dihydroquinoline-3-carbonitrile] | – | > 100 nM | > 100 nM | –
15 | CCOC(=O)c1c(Nc2ccc(O[C@H]3CO[C@H]4[C@@H]3OC[C@@H]4O)c(Cl)c2)c2ccccc2n(Cc2ccccc2)c1=O [Example S, ethyl 4-[4-[[(3S,3aR,6S,6aR)-3-hydroxy-2,3,3a,5,6,6a-hexahydrofuro[3,2-b]furan-6-yl]oxy]-3-chloro-anilino]-1-benzyl-2-oxo-1,2-dihydroquinoline-3-carboxylate] | – | > 500 nM | > 500 nM | –
16 | CCOC(=O)c1c(O[C@H]2CO[C@H]3[C@@H]2OC[C@@H]3OC(C)=O)c2ccccc2n(Cc2ccccc2)c1=O [Example F, ethyl 4-[[(3S,3aR,6S,6aR)-6-acetoxy-2,3,3a,5,6,6a-hexahydrofuro[3,2-b]furan-3-yl]oxy]-1-benzyl-2-oxo-1,2-dihydroquinoline-3-carboxylate] | – | > 10000 nM | > 10000 nM | –
17 | CCOC(=O)c1c(O[C@H]2CO[C@H]3[C@@H]2OC[C@@H]3O)c2ccccc2n(Cc2ccccc2)c1=O [Example E, ethyl 4-[[(3S,3aR,6S,6aR)-3-hydroxy-2,3,3a,5,6,6a-hexahydrofuro[3,2-b]furan-6-yl]oxy]-1-benzyl-2-oxo-1,2-dihydroquinoline-3-carboxylate] | – | > 500 nM | > 500 nM | –
18 | N#Cc1c(O[C@H]2CO[C@H]3[C@@H]2OC[C@@H]3O)c2ccccc2n(Cc2ccc(F)cc2)c1=O [Example N, 4-[[(3S,3aR,6S,6aR)-3-hydroxy-2,3,3a,5,6,6a-hexahydrofuro[3,2-b]furan-6-yl]oxy]-1-[(4-fluorophenyl)methyl]-2-oxo-1,2-dihydroquinoline-3-carbonitrile] | – | > 100 nM | > 10000 nM | –
19 | CCOC(=O)c1c(O[C@H]2CO[C@H]3[C@@H]2OC[C@@H]3OC(=O)CCl)c2ccccc2n(Cc2ccccc2)c1=O [Example G, ethyl 4-[[(3S,3aR,6S,6aR)-6-(2-chloroacetyl)oxy-2,3,3a,5,6,6a-hexahydrofuro[3,2-b]furan-3-yl]oxy]-1-benzyl-2-oxo-1,2-dihydroquinoline-3-carboxylate] | – | > 100 nM | > 100 nM | –
20 | N#Cc1c(O[C@H]2CO[C@H]3[C@@H]2OC[C@@H]3OC(=O)CCl)c2ccccc2n(Cc2ccc(F)cc2)c1=O [Example Q, [(3S,3aR,6S,6aR)-3-[[3-cyano-1-[(4-fluorophenyl)methyl]-2-oxo-4-quinolyl]oxy]-2,3,3a,5,6,6a-hexahydrofuro[3,2-b]furan-6-yl] 2-chloroacetate] | – | > 100 nM | > 100 nM | –
21 | CCOC(=O)c1c(O[C@H]2CO[C@H]3[C@@H]2OC[C@@H]3O)c2ccccc2n(Cc2ccc(F)cc2)c1=O [Example I, ethyl 4-[[(3S,3aR,6S,6aR)-3-hydroxy-2,3,3a,5,6,6a-hexahydrofuro[3,2-b]furan-6-yl]oxy]-1-[(4-fluorophenyl)methyl]-2-oxo-1,2-dihydroquinoline-3-carboxylate] | – | > 500 nM | > 500 nM | –
22 | CCOC(=O)c1c(O[C@H]2CO[C@@H]3C=CO[C@H]23)c2ccccc2n(Cc2ccccc2)c1=O [Example H, ethyl 4-[[(3S,3aS,6aR)-2,3,3a,6a-tetrahydrofuro[3,2-b]furan-3-yl]oxy]-1-benzyl-2-oxo-1,2-dihydroquinoline-3-carboxylate] | – | > 10000 nM | > 10000 nM | –
23 | CCOC(=O)c1c(O[C@H]2CO[C@@H]3C=CO[C@H]23)c2ccccc2n(CC)c1=O [Example D, ethyl 4-[[(3S,3aS,6aR)-2,3,3a,6a-tetrahydrofuro[3,2-b]furan-3-yl]oxy]-1-ethyl-2-oxo-1,2-dihydroquinoline-3-carboxylate] | – | > 10000 nM | > 10000 nM | –
